# Assay results as given in publication PMC6925493, “Casticin inhibits nasopharyngeal carcinoma growth by targeting phosphoinositide 3-kinase” (Cancer Cell International, 2019).
# How the values were obtained:
# [1] = tested on: phosphorylation of S6, AKT and mTOR; assay: Western blotting, PI3K signalling after BYL719 in sensitive and resistant cell lines; assay type: cell-based; settings: sensitive cells (HONE1, CNE1) compared to resistant cells (S18, C666-1, HONE-EBV+)
# From the text: We used standard approaches and methods for Western blotting (WB) analyses. In brief, nasopharyngeal carcinoma cells were lysed on ice in Pierce RIPA buffer (Thermo Scientific) containing a Halt protease inhibitor cocktail (Sigma-Aldrich) and phosphatase inhibitors (Keygen Biotech). We measured protein concentration using a Beyotime protein assay protocol following the manufacturer’s instructions. Proteins were separated by using sodium dodecyl sulfate polyacrylamide gel electrophoresis and were then transferred to polyvinylidene difluoride membranes (0.45 µm; Millipore). […] The total S6, AKT, and mTOR antibodies were used on the same blots as the respective phosphorylated proteins after stripping (stripping buffer, CWBIO, China). […] Immuno-reactive bands were visualized using an enhanced chemo-luminescence kit (Thermo Fisher Scientific), and images were captured using a ChemiDoc™ XRS molecular imager (Bio-Rad). […]
# To identify BYL719-insensitive NPC cell lines, the response of 12 NPC cell lines to BYL719 was screened by viability assay (Fig. 5a). […] Both sensitive cell lines increased S-phase arrest and apoptosis rates (as measured by AV staining) compared with the those in the BYL719-insensitive cell lines (Fig. 5b, c). […]
# [2] = tested on: p110α; design: method as in PMID 23903756; settings: 1 μM; cited from earlier work
# [3] = tested on: HONE1 and CNE1; assay: Viability assay, response to BYL719; assay type: cell-based; settings: 1 µM BYL719, 72 h
# Description: (§1) The effects of casticin on the growth of the 12 cell lines were determined using the Cell Counting Kit-8 (CCK-8) assay (Dojindo, Japan). Briefly, cells were plated in 96-well plates at 4 × 10^3 cells/well in 100 μL and were treated with a gradient of casticin concentrations (0, 1, 2, 4, 8 µM). After incubation for 24, 48, or 72 h, 10 μL of the CCK-8 reagent was added into each well, and the plate was incubated for an additional 1 or 2 h. Next, a microplate reader (Bio-Rad, model 550) was used to detect absorbance at 490 nm in each well. We repeated the experiments three times. Cell viability was calculated using the following formula: […].
# To identify BYL719-insensitive NPC cell lines, the response of 12 NPC cell lines to BYL719 was screened by viability assay (Fig. 5a). […] Only two NPC cell lines, HONE1 and CNE1, were sensitive to 1 µM BYL719 after 72 h (Fig. 5a). Both sensitive cell lines increased S-phase arrest and apoptosis rates (as measured by AV staining) compared with the those in the BYL719-insensitive cell lines (Fig. 5b, c). We studied PI3K signalling in three resistant (S18, C666-1 and HONE-EBV+) (Fig. 5d) and two sensitive cell lines (HONE1 and CNE1) after treatment with a gradient of BYL719 concentrations (Fig. 5e). […]
# [4] = tested on: PI3K/AKT/mTOR signalling pathway; assay: Western blotting, PI3K/AKT/mTOR signalling in S18 and C666-1; assay type: cell-based
# From the text: (§2) We used standard approaches and methods for Western blotting (WB) analyses. In brief, nasopharyngeal carcinoma cells were lysed on ice in Pierce RIPA buffer (Thermo Scientific) containing a Halt protease inhibitor cocktail (Sigma-Aldrich) and phosphatase inhibitors (Keygen Biotech). We measured protein concentration using a Beyotime protein assay protocol following the manufacturer’s instructions. Proteins were separated by using sodium dodecyl sulfate polyacrylamide gel electrophoresis and were then transferred to polyvinylidene difluoride membranes (0.45 µm; Millipore). […] The total S6, AKT, and mTOR antibodies were used on the same blots as the respective phosphorylated proteins after stripping (stripping buffer, CWBIO, China). All primary antibodies were diluted in Tris-buffered saline containing Tween 20 and 5% bovine serum albumin (BSA), and a peroxidase conjugate (Bioworld) was used as the secondary antibody. Anti-β-actin (20536-I, Proteintech) was used as a loading control. Immuno-reactive bands were visualized using an enhanced chemo-luminescence kit (Thermo Fisher Scientific), and images were captured using a ChemiDoc™ XRS molecular imager (Bio-Rad). Densitometry of band intensity was performed using ImageJ software.
# [5] = tested on: BCL-2, BAX, p21; assay: Western blotting, cell cycle and apoptosis related proteins; assay type: cell-based
# From the text: as §2
# [6] = tested on: Nanog, sox2, and Oct4; assay: Western blotting, stem cell markers; assay type: cell-based; settings: C666-1; 0, 4, 8, 16 µM; 24 h; dose-dependent
# From the text: as §2
# [7] = tested on: PI3K family, including wild-type and mutant kinases; assay: KINOMEscan binding to PI3K family; design: species or system human; settings: 10 μM
# Description: (§3) Selectivity profiling of casticin against a selected panel of 468 kinases distributed throughout the kinome was performed by DiscoverRx (http://www.discoverx.com/home) using the KINOMEscan screening platform at a test concentration of 10 μM. Since KINOMEscan is a binding assay and may not reflect the inhibitory activity of a compound, the binding constant (Kd) of casticin was calculated from a standard dose–response curve using the Hill equation: Response = Background + (Signal − Background)/[1 + (Kd^Hill Slope/Dose^Hill Slope)]. We then tested casticin in the SelectScreen assay (Invitrogen, USA) to calculate the IC50 of casticin that directly targeted the active site of ATP in PI3K kinase.
# [8] = tested on: normal nasopharyngeal mucosal epithelial cell line NP69; assay: CCK-8 cell viability assay, NP69; assay type: cell-based; settings: NP69 cells
# Description: as §1
# [9] = tested on: S18 cells; assay: Colony formation assay; assay type: cell-based
# Description: S18 and C666-1 cells were incubated in 6-well plates with either 0, 1, 2, and 4 µM casticin for 12 h with 1 µM casticin for 0, 6, 12, and 24 h. There after, 500 cells were seeded in each well of a 6-well plate and cultured without casticin for 8–10 days. Subsequently, the cells were fixed with methanol and stained with haematoxylin. After washing and drying, colonies with more than 50 cells were counted under a microscope (Leica, Wetzlar, Germany).
# [10] = molecular target: T1, PIK3CA/PIK3R3 (p110a/p55 gamma) (Homo sapiens, UniProt P42336); assay: SelectScreen biochemical kinase activity assay
# T1 construct: purchased Invitrogen (SelectScreen service)
# T1 sequence (P42336 whole entry): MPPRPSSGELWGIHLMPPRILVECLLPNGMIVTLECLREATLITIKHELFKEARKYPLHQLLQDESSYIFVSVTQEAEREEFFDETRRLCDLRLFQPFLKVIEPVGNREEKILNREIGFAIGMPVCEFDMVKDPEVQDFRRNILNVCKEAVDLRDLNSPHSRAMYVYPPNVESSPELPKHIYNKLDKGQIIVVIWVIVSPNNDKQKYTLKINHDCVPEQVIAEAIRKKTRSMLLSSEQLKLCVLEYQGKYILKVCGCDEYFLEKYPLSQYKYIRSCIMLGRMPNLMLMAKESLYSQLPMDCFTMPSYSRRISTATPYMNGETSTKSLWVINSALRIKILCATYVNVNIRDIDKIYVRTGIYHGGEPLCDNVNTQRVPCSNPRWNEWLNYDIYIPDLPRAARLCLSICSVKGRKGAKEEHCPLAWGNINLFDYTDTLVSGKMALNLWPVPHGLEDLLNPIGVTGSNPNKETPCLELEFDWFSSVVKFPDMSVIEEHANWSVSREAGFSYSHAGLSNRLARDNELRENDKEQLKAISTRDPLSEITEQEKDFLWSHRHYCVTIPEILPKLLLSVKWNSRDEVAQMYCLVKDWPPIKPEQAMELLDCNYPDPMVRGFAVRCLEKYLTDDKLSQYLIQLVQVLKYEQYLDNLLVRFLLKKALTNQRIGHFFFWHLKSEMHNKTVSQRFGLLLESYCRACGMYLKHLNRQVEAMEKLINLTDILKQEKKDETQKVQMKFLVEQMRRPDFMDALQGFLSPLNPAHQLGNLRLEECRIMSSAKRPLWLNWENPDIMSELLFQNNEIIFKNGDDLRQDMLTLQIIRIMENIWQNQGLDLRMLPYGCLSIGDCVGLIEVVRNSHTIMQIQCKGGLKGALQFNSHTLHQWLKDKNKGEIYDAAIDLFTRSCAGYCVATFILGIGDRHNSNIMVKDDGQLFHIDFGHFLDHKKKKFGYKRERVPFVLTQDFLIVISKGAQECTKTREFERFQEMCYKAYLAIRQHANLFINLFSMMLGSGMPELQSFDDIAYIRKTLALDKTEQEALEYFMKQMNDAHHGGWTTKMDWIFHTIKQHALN
# Description: as §3
# [11] = molecular target: T2, PIK3CA ( p110 alpha/p85 alpha ) (Homo sapiens, UniProt P42336); assay: SelectScreen biochemical kinase activity assay
# T2 construct: purchased Invitrogen (SelectScreen service)
# T2 sequence (P42336 whole entry): as the sequence (P42336 whole entry) above
# T2 sequence (P27986 whole entry partner): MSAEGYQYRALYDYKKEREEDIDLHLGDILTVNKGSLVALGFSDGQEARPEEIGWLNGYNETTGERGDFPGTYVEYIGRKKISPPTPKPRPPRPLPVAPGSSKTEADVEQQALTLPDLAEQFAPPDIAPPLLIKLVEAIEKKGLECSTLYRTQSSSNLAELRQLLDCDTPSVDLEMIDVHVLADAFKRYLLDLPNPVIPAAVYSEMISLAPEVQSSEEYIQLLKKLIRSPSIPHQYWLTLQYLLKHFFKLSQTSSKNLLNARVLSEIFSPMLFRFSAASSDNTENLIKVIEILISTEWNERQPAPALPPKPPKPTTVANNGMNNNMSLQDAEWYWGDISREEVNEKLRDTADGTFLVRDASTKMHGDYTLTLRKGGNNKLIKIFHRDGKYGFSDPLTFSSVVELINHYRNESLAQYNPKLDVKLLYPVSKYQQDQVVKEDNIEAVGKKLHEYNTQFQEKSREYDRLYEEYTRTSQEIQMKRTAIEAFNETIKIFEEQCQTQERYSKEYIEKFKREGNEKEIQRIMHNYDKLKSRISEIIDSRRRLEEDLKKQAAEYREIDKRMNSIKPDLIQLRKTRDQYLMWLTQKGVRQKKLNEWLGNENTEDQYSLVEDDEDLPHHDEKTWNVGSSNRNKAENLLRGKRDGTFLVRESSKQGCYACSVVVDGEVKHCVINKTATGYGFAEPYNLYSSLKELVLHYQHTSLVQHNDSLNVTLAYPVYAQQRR
# Description: as §3
# [12] = molecular target: T3, PIK3CA E545K/PIK3R1 (p110 alpha E545K/p85 alpha) (Homo sapiens, UniProt P42336, E545K); assay: SelectScreen biochemical kinase activity assay
# T3 construct: purchased Invitrogen (SelectScreen service)
# T3 sequence (P42336 whole entry E545K): as the sequence (P42336 whole entry) above, with E545K counted along it
# T3 sequence (P27986 whole entry partner): as the sequence (P27986 whole entry partner) above
# Description: as §3
# [13] = molecular target: T4, PIK3CA E542K/PIK3R1 (p110 alpha/p85 alpha) (Homo sapiens, UniProt P42336, E542K); assay: SelectScreen biochemical kinase activity assay
# T4 construct: purchased Invitrogen (SelectScreen service)
# T4 sequence (P42336 whole entry E542K): as the sequence (P42336 whole entry) above, with E542K counted along it
# T4 sequence (P27986 whole entry partner): as the sequence (P27986 whole entry partner) above
# Description: as §3
# [14] = tested on: S18 cells; assay: Cell cycle analysis by flow cytometry, S18; assay type: cell-based; settings: 8 µM casticin for 24 h
# Description: (§4) S18 and C666-1 cells were treated with 0, 2, 4, and 8 µM casticin for 24 h. The cells were then collected, washed with phosphate-buffered saline (PBS), and fixed with 75% ethanol overnight. Subsequently, the cells were centrifuged (1500 rpm, 5 min) and incubated with 10 mg/mL RNase and 1 mg/mL propidium iodide (PI) at 37 °C for 30 min in the dark. Finally, we analysed cell cycle distribution by using flow cytometry (FACSCalibur; BD Biosciences, Bedford, MA, USA).
# [15] = tested on: C666-1 cells; assay: C666-1 xenograft mouse model; assay type: in vivo, nude mice; settings: 40 mg/kg daily i.p.
# Description: (§5) Generation and characterization of the xenograft mouse model were conducted in accordance with the guidelines of the Ministry of Science and Technology of China and were approved by the Animal Ethics Committee of Southern Medical University. All efforts were made to minimize animal suffering during the experiments. Five-week-old nude mice were obtained from the Guangdong Experimental Animal Ccenter. To assess the tumour growth, 5 × 10^6 S18 cells and 1 × 10^7 C666-1 cells were injected subcutaneously into the left or right side of the back of each mouse (three mice per group). When tumours reached approximately 100 mm^3, the mice were randomized to the control and casticin treatment groups. Casticin was diluted in 10% DMSO in normal saline (NS) and injected intraperitoneally at 40 mg/kg daily, while the control group received only NS vehicle. Tumour sizes were measured with a caliper and recorded every 3 days. Tumour volume was calculated as follows: tumour volume = (length × width^2) × 0.5. Body weight was recorded every 2–3 days during the treatment, and the tumour weight was measured at the end of the experiment.
# [16] = tested on: S18 and C666-1 cells; assay: Wound-healing assay; assay type: cell-based; settings: vs cells not treated
# Description: We seeded S18 and C666-1 cells in 6-well plates at 80% to 90% confluence. After a 24-h incubation period, cells were wounded by using a 0.2-mL pipette tip to scratch the subconfluent cell monolayer. Then, we removed the detached cells by washing with PBS just before casticin 16 µM was added to each well of the plate. Cells were maintained in serum-free medium and allowed to migrate for 24 h. An inverted microscope was used to capture cell migration images after 24 h. The speed of migration was determined by dividing the length of the gap and the wound areas in the resultant images.
# [17] = tested on: NPC cell lines; assay: CCK-8 cell viability assay, NPC cell lines; assay type: cell-based
# Description: as §1
# [18] = tested on: S18 cells; assay: Transwell migration assay; assay type: cell-based; settings: concentration-dependent
# [19] = tested on: C666-1 cells; assay: Cell cycle analysis by flow cytometry, C666-1; assay type: cell-based; settings: 8 µM casticin for 24 h
# Description: as §4
# [20] = tested on: S18 cells; assay: Annexin V/PI staining assay; assay type: cell-based; settings: 48 h
# Description: For the apoptosis test, S18 and C666-1 cells were treated with casticin at concentrations of 0, 1, 2, and 4 µM and of 0, 2, 4, and 8 µM for 48 h. Next, cells were collected and washed once with PBS. After centrifugation (1500 rpm, 5 min), cells were resuspended in 1× annexin V (AV) binding buffer and incubated with 5 µL of AV and PI at 37 °C for 30 min. Cell apoptosis was evaluated by using flow cytometry (FACSCalibur).
# [21] = tested on: S18 cells; assay: S18 xenograft mouse model; assay type: in vivo, nude mice
# Description: as §5
# [22] = tested on: panel of 468 kinases; assay: KINOMEscan selectivity profiling; assay type: binding, human; settings: 10 μM
# Description: as §3
# [23] = tested on: S18, CNE2, C666-1 tumour spheres; assay: 3D tumour sphere formation assay; assay type: cell-based; settings: 20 µM casticin for 72 h; vs untreated spheres
# Description: S18, CNE2, and C666-1 cells (2 × 10^4 each) were cellected, counted and seeded into a cell culture flask with a novel 3D tumour sphere culture system. The 3D tumour sphere culture system with NPC cells was cultured at 37 °C in a humid atmosphere with 5% CO2, the diameters of tumour spheroids were measured when the tumour sphere diameter was ≥ […] [15] and then incubated with 20 µM casticin for 72 h, the original medium was discarded, the cells were cultured for approximately 1 week, and the tumour spheres that were ≥ 100 µm in diameter were counted under a bright field microscope.
# [24] = read-out: Inhibited kinase activity(%) at 1μM of Casticin
# [25] = 40 mg/kg daily i.p., vs NS group
structure (smiles),measurement,setting,value
Cc1nc(NC(=O)N2CCC[C@H]2C(N)=O)sc1-c1ccnc(C(C)(C)C(F)(F)F)c1 [BYL719],"phosphorylation of S6, AKT and mTOR",[1],significantly reduced
same,block of p110 subunits,[2],blocked p110α without affecting the other p110 subunits
same,sensitivity class by viability (IC50 cut-off 1 μM),[3],sensitive
same,phosphorylation of ATK (Ser473 and Thr308) or mTORC1,"[4]; BYL719 1 µM alone, 12 h",did not reduce
"COc1ccc(-c2oc3cc(OC)c(OC)c(O)c3c(=O)c2OC)cc1O [casticin, 3′,5-dihydroxy-3,4′,6,7-tetramethoxyflavone]",p21 expression,"[5]; S18 and C666-1, 24 h",increased
same,BCL-2/BAX ratio,[5]; casticin-treated S18 and C666-1 cells,significantly decreased in a dose-dependent manner
same,"expression of tumour stemness markers Nanog, sox2, Oct4",[6],reduced expression
same,percent control number,[7],less than 1
same,effect on cell growth compared to BYL719,[8],less effective
same,cell viability,"[8]; gradient of concentrations, 24, 48, 72 h",resistant
same,clonogenic ability,"[9]; 1 µM casticin, vs control group",diminished as early as 6 h
same,clonogenic activity,"[9]; S18 cells, 0, 1, 2, 4 µM for 12 h",significant reduction
same,IC50,[10],574 nM
same,inhibition at 1 µM,[10]; [24],46%
same,IC50,[11]; PI3K (p110α/p85α),616 nM
same,inhibition at 1 µM,[11]; [24],56%
same,IC50,[12],544 nM
same,inhibition at 1 µM,[12]; [24],54%
same,IC50,[13],306 nM
same,inhibition at 1 µM,[13]; [24],57%
same,percentage of cells in the G2/M phase,[14],62.90 ± 1.97%
same,"phosphorylation of AKT (T308, S473) and mTOR (Ser2481, Ser2448)","[4]; 24 h, increasing casticin concentrations, dose-dependent",significant reduction
same,tumour growth and liver/kidney histology in C666-1 in vivo model,[15],findings similar to those with the S18 model
same,gap-closing speeds,[16],significantly decreased
same,IC50 on viability compared with BYL719,"[17]; 12 NPC cell lines, 24 h",lower than that of BYL719
same,cell viability,"[17]; eleven NPC cell lines, gradient of concentrations, 24, 48, 72 h, concentration-dependent",decreased
same,number of migrating cells,[18],significantly reduced
same,percentage of cells in the G2/M phase,[19],62.54 ± 4.91%
same,early and late apoptosis,[20]; 1 μM,significantly increased
same,apoptotic frequency,[20]; 4 μM,approximately 75%
same,damage to the liver or kidney (haematoxylin and eosin histopathology),[21]; 40 mg/kg daily i.p.,without any obvious subsequent damage to the liver or kidney
same,tumour size,"[21]; 40 mg/kg daily i.p. for 12 days, 18 days after implantation",smaller than those in the control group
same,tumour growth rate (tumour volume),[21]; [25],lower than NS group
same,tumour weight,[21]; [25],lighter than NS group
same,ratios of liver and kidney weight to body weight,"[21]; S18 model, 40 mg/kg daily i.p.",not statistically significant between groups
same,S score (1),[22],0.01
same,binding to other kinases,[22]; KINOMEscan,did not demonstrate strong binding
same,tumour sphere growth,[23],significant reduction in tumour growth
